For series [1], the system named is VEGFR2. The experiment in a line: qPCR of VEGFR levels in HRMEC treated with IL-18. The format is cell-based, human. The settings on record: IL-18 100 ng/ml over timepoints. The procedure:
FIG. 15 illustrates IL-18 reduces expression of VEGFR2 specifically in Human retinal endothelial cells (HRMECs), wherein HRMECs were treated with IL-18 (100 ng/ml) over timepoints indicated, wherein cells lysates were prepared for RNA isolation and underwent qPCR and ddCt method to assess relative expression of VEGFR levels, using B-actin as reference control, wherein RT-PCR data are means±SEM of n=3 independent experiments;
Confluent HRMECs were stimulated with 50 or 100 ng/ml of recombinant human IL-18 (SB-485232; GSK); 10 ng/ml of human IL-1α (R&D systems) or 50 ng/ml of human VEGF165 (Peprotech) diluted in complete growth medium, with complete growth media added to wells alone for ‘no treatment’. […]
All RT-PCR assays were carried out using the SensiFAST SYBR Hi-ROX Kit (Bioline) with primers designed using Primer-BLAST (NCBI). […] Data were analysed using the QuantStudio™ Design & Analysis software (Applied Biosystems) and using the comparative Ct (ΔΔCt) method where test samples were normalised to endogenous control (β-Actin) followed by normalising the ΔCt of test samples to sample control (untreated sample), then calculating 2^−ΔΔCt to find the relative fold change of test samples over sample control.
A general note: In qPCR the cycle at which signal appears reflects the starting amount.

Series [2] deals with HRMEC. In words: MTS assay of HRMEC proliferation with VEGF and IL-18. The format is cell-based, human. The procedure: FIG. 17 illustrates HRMEC proliferation in response to VEGF is enhanced with IL-18 pre-treatment, wherein HRMECs were treated with increasing concentrations of VEGF alone or with a 24 hour pre-treatment of IL-18 at 10, 100 or 1000 ng/ml, wherein increasing VEGF induced an increase in cell proliferation which was enhanced following IL-18 treatment;
Cell viability was assessed using the CellTiter 96 AQueous One Solution cell proliferation MTS assay (Promega) as per the manufacturer's instructions. Cell monolayers were treated for times indicated where treatment supplemented media was then removed and incubated with 20 μl of CellTiter 96 AQueous One Solution in 100 μl of complete growth medium in a humidified incubator at 37° C. with 5% CO2for 1-4 hours. The absorbance of each well was measured at 490 nm using a SynergyMX plate reader (Biotek, Gen5™).

Series [3] concerns primary human foetal RPE (hfRPE) cells. In words: Scratch assay in hfRPE cultures. The settings on record: IL-18 10-1000 ng/ml, up to 18 hours. Type of series: cell-based. The procedure: FIG. 19 illustrates IL-18 induces fibroblast-like cells to migrate to close a wound created in human Retinal Pigment Epithelium monolayer in vitro, wherein primary human foetal RPE (hfRPE) cells were treated with control medium (0 ng/ml) or increasing doses of IL-18 (10-1000 ng/ml) immediately after making a scratch through the centre of the well, wherein microscopy images were acquired at the same location at baseline (0 hours) and then every 2 hours until 18 hours, representative images for each treatment group are shown, wherein cells were stained with DAPI to show the nuclei, and phalloidin to show F-actin, wherein Brightfield images (phase) are also shown;

The subject of series [4] is human ocular choroidal fibroblasts (HOCFs). The experiment in a line: LDH assay of HOCF cell death. Type of series: cell-based. The note with it: HOCFs, 10, 100 or 1000 ng/ml IL-18 over 48 h. The procedure: FIG. 20 illustrates IL-18 activates human ocular choroidal fibroblasts and inhibits VEGF secretion, wherein (A) is human ocular choroidal fibroblast (HOCFs) treated with IL-18 at increasing doses for 8 h, wherein cells were fixed and stained with antibody targeting intermediate filament vimentin (red), Hoechst (blue) and phalloidin (green); (B) is HOCFs treated with IL-18 (100 ng/ml) over 60 mins and immunoblotted for phospho-ERK and phospo-p65 with B-actin and GAPDH as controls; (C) is HOCFs treated with IL-18 (100 ng/ml) over 24 h as indicated, wherein cells were analysed for VEGF expression by qPCR (D) is HOCFs treated with 10, 100 or 1000 ng/ml of IL-18 as indicated over 48 h and cell death was analysed by LDH assay;

Series [5] deals with laser induced CNV in WT mice. In words: Mesenchymal cell infiltration/activation after laser induced CNV, 3 days. Type of series: in vivo, mouse. The procedure: FIG. 22 illustrates increased mesenchymal cell infiltration/activation in animals injected with IL-18 intrperitoneally, wherein WT mice underwent laser induced CNV and were injected IP with IL-18 (100 ug/kg), wherein 3 days later eyes were enucleated, flatmounts were stained with F4/80, vimentin and isolectin and imaged by confocal microscopy;
FIG. 23 illustrates increased mesenchymal cell infiltration/activation in animals injected with IL-18 intra-vitreally, wherein WT mice underwent laser induced CNV and were injected intravitreally with IL-18 (0.3ng/eye), wherein 3 days later eyes were enucleated, flatmounts were stained with F4/80, vimentin and isolectin and imaged by confocal microscopy;

Turning to “IL-18: recombinant human IL-18 (SB-485232; GSK)”, the VEGFR2 expression result in series [1] is recorded as “specifically reduces VEGFR2”. Besides, the “HRMEC proliferation, IL-18 alone” value in series [2] is on record as “able to enhance HRMEC proliferation”. In addition, the “VEGF induced proliferation after IL-18 pre-treatment” value in series [2] (24 hour pre-treatment with IL-18 at 10, 100 or 1000 ng/ml) is “VEGF induced proliferation was increased”. Moreover, the “cell migration into wound in hfRPE monolayer” value in series [3] is “appearance of fibroblast-like cells that migrated across the wound”. In addition, the “HOCF death (LDH assay)” value in series [4] was “does not cause HOCF death and may enhance HOCF viability”. The entries for the “vimentin staining at CNV lesion” value in series [5] (IL-18 0.3ng/eye intravitreally) and in series [5] (IL-18 100 ug/kg intra-peritoneally) were “driving vimentin positive cells to encapsulate the neovascular lesion” and “increased vimentin”, respectively.

The values are drawn from patent publication US20250127857A1, “A COMPOSITION COMPRISING IL-36 AND/OR IL-18 FOR USE IN TREATING OCULAR DISORDERS” (THE PROVOST, FELLOWS, FOUNDATION SCHOLARS, & THE OTHER …, priority 2021, published 2025).
